Experimental data: patent US20240009269A1 (priority 2020, published 2024)

What was measured:
mice = settings: intraperitoneal administration; cited from earlier work
[1] = test system: tissue-engineered dhBMECs microvessels; assay: BBB opening in tissue-engineered BBB microvessels (500 kDa dextran leakage); format: cell-based, human
Protocol: Three-dimensional blood-brain barrier microvessels were fabricated as previously reported (FIGS. 10A and 10B) [Linville, R. M., et al., Biomaterials, 2019. 190-191: p. 24-37] 150 μm diameter and 1 cm long channels were patterned in 7 mg mL^−1 type I collagen (Corning) using nitinol wire (Malin Co.) housed within polydimethylsiloxane (PDMS; Dow Corning). Channels were cross-linked by incubation in 20 mM genipin (Wako Biosciences) for 2 hours to increase cell adhesion. 2dhBMECs were suspended in BBB induction medium at a concentration of 5×10^6 cells mL^−1 and seeded into channels. Microvessels were perfused using BBB induction medium for 24 hours and then switched to BBB maintenance medium. During cell seeding and the first day of perfusion, 10 μM ROCK inhibitor Y27632 (ATCC) was supplemented to increase adhesion. An average shear stress of ˜2 dyn cm^−2 was maintained with a reservoir height difference (Δh) of 3 cm, corresponding to a volumetric flow rate of ˜250 μL h^−1 (FIG. 11D). This shear stress was estimated from the Poiseuille equation: τ=μQ)/2πd3 where μ is the media dynamic viscosity, Q is the volumetric flow rate, and d is the microvessel diameter.
Live-cell imaging was conducted to study dynamic changes in in vitro BBB permeability and microvessel structure. Microvessels were imaged using a 10×objective equipped on an inverted microscope (Nikon Eclipse TiE) maintained at 37° C. and 5% CO2 (FIG. S2C). Epifluorescence illumination was provided by an X-Cite 120LEDBoost (Excelitas Technologies). Phase contrast and fluorescence images were acquired every two minutes with the focal plane set to the microvessel midplane. The entire image collected consists of ten adjacent imaging frames. […] A dextran solute panel comprised of 200 μM Cascade Blue-conjugated 3 kDa dextran (Cat. No. D7132. Thermo Fisher Scientific), 16 μM Alexa Fluor647-conjugated 10 kDa dextran (Cat. No. D22914, Thermo Fisher Scientific), and 1.2 μM fluorescein-conjugated 500 kDa dextran (Cat. No. D7136, Thermo Fisher Scientific) was prepared in BBB maintenance medium. Fluorophores were independently excited and the respective emissions were collected using: Nikon UV-2E/C for 3 kDa dextran (50 ms exposure), Chroma 41008 for 10 kDa dextran (20 ms exposure), and Nikon B-2E/C for 500 kDa dextran (50 ms exposure).
Image processing was performed using ImageJ (NIH) to quantify BBB opening (FIGS. 11A-11D). First, images were cropped to a standard size of 6 mm×0.6 mm. To determine the spatial heterogeneity of BBB permeability, microvessels were sectioned into 10 regions of interest (ROIs), each a 0.6 mm×0.6 mm square (FIG. 11A). For each ROI, the integrated pixel density was plotted over time (FIG. 11A). The permeability (cm s^−1) was calculated using P=(r/2)(1/ΔI)(dI/dt), where r is the vessel radius, ΔI is the increase in fluorescence intensity upon perfusion of the fluorophore, and (dI/dt) is the rate of increase in fluorescence intensity as solute exits into the gel. […] To visually display permeability dynamics, heatmaps were generated from 90 instantaneous permeability values across the 10 ROIs (x-axis) and nine 10-minute periods (y-axis). […] 28(1): p. 41-51 in ImageJ (FIG. 11B). Under baseline conditions, thresholding results in the lumen designated as white (1) and extracellular matrix (ECM) as black (0). […] From binarized images, individual focal leaks were manually counted over time. Leaks emerging from the sides of the image frame were not counted. To quantify the duration of a BBB opening effect, we identified the time at which the last focal leak appeared and termed the focal leak reversibility time constant (τfocal leaks).

[2] = Estimated systemic exposure after intra-arterial injection; format: in vivo, mouse

For CC[C@H](C)[C@H](NC(=O)CN)C(=O)NCC(=O)N[C@@H](C)C(=O)N[C@H](C(=O)N[C@@H](CC(C)C)C(=O)N[C@@H](CCCCN)C(=O)N[C@H](C(=O)N[C@@H](CC(C)C)C(=O)N[C@H](C(=O)N[C@H](C(=O)NCC(=O)N[C@@H](CC(C)C)C(=O)N1CCC[C@H]1C(=O)N[C@@H](C)C(=O)N[C@@H](CC(C)C)C(=O)N[C@H](C(=O)N[C@@H](CO)C(=O)N[C@@H](Cc1c[nH]c2ccccc12)C(=O)N[C@H](C(=O)N[C@@H](CCCCN)C(=O)N[C@@H](CCCNC(=N)N)C(=O)N[C@@H](CCCCN)C(=O)N[C@@H](CCCNC(=N)N)C(=O)N[C@@H](CCC(N)=O)C(=O)N[C@@H](CCC(N)=O)C(N)=O)[C@@H](C)CC)[C@@H](C)CC)[C@@H](C)O)[C@@H](C)O)C(C)C)C(C)C [melittin], the LD50 (mice) is listed as 3.2 mg/kg, the “increase in delivery of 500 kDa dextran across the blood-brain barrier in vitro” value [1] is listed as ≤ 25 fold and the “500 kDa dextran permeability” value ([1]; 5 μM melittin for 90 minutes, continuous) is listed as “high 500 kDa dextran permeability”. For the same compound, the “average permeability of 500 kDa dextran, fold higher than baseline” value ([1]; 50 μM·minute dose) was ~25 fold, the “focal leak density relative to mannitol” value ([1]; above threshold doses, retrospective comparison) was 3 fold and the “focal leaks 24 hours after melittin exposure” value ([1]; all doses, 3-100 μM·minute, 500 kDa dextran) was “focal leaks were not observed”. The “barrier function after 24 hours” value ([1]; high doses) was “barrier function was regained 24 hours later”, the BBBO ([1]; high doses (10-minute 10 μM)) was “induced sustained BBBO, but did not recover during the 90 minutes of imaging” and the BBBO ([1]; intermediate doses (5-minute 5 μM)) was “induced BBBO and resulted in recovery during the 90 minute imaging period”. For the same compound, the “character of focal leaks” value ([1]; intermediate doses (20-50 μM·minute)) was “transient”, the BBBO ([1]; low doses (2-minute 1.5 μM)) was “did not induce BBBO” and the “systemic dose, fold lower than the LD50” value ([2]; 3 μM·min melittin, mouse weight of 20 g assumed) was ~50 fold. The “melittin concentration after dilution in the bloodstream” value ([2]; 3 μM·min, 150 μL injection diluted into 1.2 mL of whole blood (assumed)) was 0.33 µM and the “reduction of melittin concentration upon exiting the brain” value ([2]; dilution in the bloodstream assumed) was ~10 fold.
